The target in the experiment is Gag' (GST-Gag) (Human immunodeficiency virus type 1 group M subtype B, UniProt P12493). In kind it is binding, HIV-1. The note with it: DSF validation.

Entries after “also recorded” stand apart in the source; their conditions may differ.

With `C=C(C)[C@@H]1CC[C@]2(C(=O)O)CC[C@]3(C)[C@H](CC[C@@H]4[C@@]5(C)CC[C@H](OC(=O)CC(C)(C)C(=O)O)C(C)(C)[C@@H]5CC[C@]43C)[C@@H]12` [Bevirimat], the “thermal stability (Tm) of Gag' in complex” value is listed as “increased the thermal stability; also recorded: higher melting temperature”.
